Source: patent publication US6911469B2, “Sulfonamide compounds and pharmaceutical use thereof” (Fujisawa Pharmaceutical Co., Ltd., priority 1997, dated 2005)

| melting point | Compound |
| --- | --- |
| 138 to 139 °C | CCCCCS(=O)(=O)NC(=O)c1ccc2nc(C)n(Cc3ccc(CC)cc3Cl)c2n1 [Example 70-1, 3-(2-chloro-4-ethylbenzyl)-2-methyl-5-(1-pentanesulfonylcarbamoyl)-3H-imidazo[4,5-b]pyridine] |
| 167 to 168 °C | CCc1ccc(Cn2c(C)nc3ccc(C(=O)NS(=O)(=O)c4ccccc4)nc32)c(Cl)c1 [Example 70-2, 5-(benzenesulfonylcarbamoyl)-3-(2-chloro-4-ethylbenzyl)-2-methyl-3H-imidazo[4,5-b]pyridine] |
| 184 to 185 °C | CCc1ccc(Cn2c(C)nc3ccc(C(=O)NS(=O)(=O)/C=C/c4ccccc4)nc32)c(Cl)c1 [Example 70-4, (E)-3-(2-chloro-4-ethylbenzyl)-2-methyl-5-[(2-phenylethenyl)sulfonylcarbamoyl]-3H-imidazo[4,5-b]pyridine] |
| 174 to 175 °C | C=Cc1ccc(Cn2c(C)nc3ccc(C(=O)NS(=O)(=O)c4ccccc4)nc32)c(Cl)c1 [Example 71, 5-(benzenesulfonylcarbamoyl)-3-(2-chloro-4-vinylbenzyl)-2-methyl-3H-imidazo[4,5-b]pyridine] |
| 213 to 215 °C | Cc1ccc(Cn2c(C)nc3ccc(C(=O)NS(=O)(=O)c4ccccc4)nc32)c(Cl)c1 [Example 72, 5-(benzenesulfonylcarbamoyl)-3-(2-chloro-4-methylbenzyl)-2-methyl-3H-imidazo[4,5-b]pyridine] |
| 174 to 175 °C | CCCCCc1ccc(Cn2c(C)nc3ccc(C(=O)NS(=O)(=O)c4ccccc4)nc32)c(Cl)c1 [Example 73, 5-(benzenesulfonylcarbamoyl)-3-(2-chloro-4-(n-pentyl)benzyl)-2-methyl-3H-imidazo[4,5-b]pyridine] |
| 183 to 184 °C | Cc1nc2ccc(C(=O)NS(=O)(=O)c3ccccc3)nc2n1Cc1ccc(CC(C)C)cc1Cl [Example 74, 5-(benzenesulfonylcarbamoyl)-3-(2-chloro-4-isobutylbenzyl)-2-methyl-3H-imidazo[4,5-b]pyridine] |
| 170 to 171 °C | Cc1nc2ccc(C(=O)NS(=O)(=O)c3ccccc3)nc2n1Cc1ccc(CC2CCCCC2)cc1Cl [Example 75, 5-(benzenesulfonylcarbamoyl)-3-(2-chloro-4-(cyclohexylmethyl)benzyl)-2-methyl-3H-imidazo[4,5-b]pyridine] |
| 262 to 263 °C | Cc1nc2ccc(C(=O)NS(=O)(=O)c3ccccc3)nc2n1Cc1ccc(/C=C/c2ccccc2)cc1Cl [Example 76, (E)-5-(benzenesulfonylcarbamoyl)-3-(2-chloro-4-(2-phenylethenyl)benzyl)-2-methyl-3H-imidazo[4,5-b]pyridine] |
| 190 to 191 °C | Cc1nc2ccc(C(=O)NS(=O)(=O)c3ccccc3)nc2n1Cc1ccc(OCc2ccccc2)cc1Cl [Example 77, 5-(benzenesulfonylcarbamoyl)-3-(4-benzyloxy-2-chlorobenzyl)-2-methyl-3H-imidazo[4,5-b]pyridine] |
| 151 to 152 °C | COc1ccc(Cn2c(C)nc3ccc(C(=O)NS(=O)(=O)c4ccccc4)nc32)c(Cl)c1 [Example 78, 5-(benzenesulfonylcarbamoyl)-3-(2-chloro-4-methoxybenzyl)-2-methyl-3H-imidazo[4,5-b]pyridine] |
| 177 to 179 °C | Cc1nc2ccc(C(=O)NS(=O)(=O)c3ccccc3)nc2n1Cc1ccc(OC(C)C)cc1Cl [Example 79, 5-(benzenesulfonylcarbamoyl)-3-(2-chloro-4-isopropoxybenzyl)-2-methyl-3H-imidazo[4,5-b]pyridine] |
| 122 to 125 °C | Cc1nc2ccc(C(=O)NS(=O)(=O)c3ccccc3)nc2n1Cc1ccc(OCC2CCCCC2)cc1Cl [Example 81, 5-(benzenesulfonylcarbamoyl)-3-(2-chloro-4-((cyclohexylmethyl)oxy)benzyl)-2-methyl-3H-imidazo[4,5-b]pyridine] |
| 104 to 105 °C | Cc1nc2ccc(C(=O)NS(=O)(=O)c3ccccc3)nc2n1Cc1ccc(OCCN(C)c2ccccn2)cc1Cl [Example 82, 5-(benzenesulfonylcarbamoyl)-3-(2-chloro-4-((2-(N-methyl-N-(2-pyridinyl)amino)ethyl)oxy)benzyl)-2-methyl-3H-imidazo[4,5-b]pyridine] |
| 165 to 166 °C | CSc1ccc(Cn2c(C)nc3ccc(C(=O)NS(=O)(=O)c4ccccc4)nc32)c(Cl)c1 [Example 83, 5-(benzenesulfonylcarbamoyl)-3-(2-chloro-4-(methylthio)benzyl)-2-methyl-3H-imidazo[4,5-b]pyridine] |
| 230 to 231 °C | Cc1nc2ccc(C(=O)NS(=O)(=O)c3ccccc3)nc2n1Cc1ccc([S+](C)[O-])cc1Cl (stereo not drawn) [Example 84, 5-(benzenesulfonylcarbamoyl)-3-(2-chloro-4-(methylsulfinyl)benzyl)-2-methyl-3H-imidazo[4,5-b]pyridine] |

| melting point | Compound |
| --- | --- |
| 253 to 255 °C | Cc1nc2ccc(C(=O)NS(=O)(=O)c3ccccc3)nc2n1Cc1ccc(C=O)cc1Cl [Example 92, 5-(benzenesulfonylcarbamoyl)-3-(2-chloro-4-formylbenzyl)-2-methyl-3H-imidazo[4,5-b]pyridine] |
| 271 to 274 °C | Cc1nc2ccc(C(=O)NS(=O)(=O)c3ccccc3)nc2n1Cc1ccc(C=C2SC(=O)NC2=O)cc1Cl [Example 93, 5-(benzenesulfonylcarbamoyl)-3-[2-chloro-4-[(2,4-dioxo-1,3-thiazolidine-5-ylidene)methyl]benzyl]-2-methyl-3H-imidazo[4,5-b]pyridine] |
| 154 to 155 °C | CCCCCS(=O)(=O)NC(=O)c1ccc2nc(C)n(Cc3ccc(C(F)(F)F)cc3Cl)c2n1 [Example 102-2, 3-[2-chloro-4-(trifluoromethyl)-benzyl]-2-methyl-5-(1-pentanesulfonylcarbamoyl)-3H-imidazo[4,5-b]pyridine] |
| 210 to 211 °C | CCCCCS(=O)(=O)NC(=O)c1cc(C)c2nc(C)n(Cc3ccc4ccccc4c3Br)c2n1 [Example 104-1, 3-(1-bromonaphthalen-2-ylmethyl)-2,7-dimethyl-5-(pentanesulfonylcarbamoyl)-3H-imidazo[4,5-b]pyridine] |
| 229 to 230 °C | Cc1cc(C(=O)NS(=O)(=O)c2ccccc2)nc2c1nc(C)n2Cc1ccc2ccccc2c1Br [Example 104-2, 5-(benzenesulfonylcarbamoyl)-3-(1-bromonaphthalen-2-ylmethyl)-2,7-dimethyl-3H-imidazo[4,5-b]pyridine] |
| 262 to 263 °C | Cc1cc(C(=O)NS(=O)(=O)/C=C/c2ccccc2)nc2c1nc(C)n2Cc1ccc2ccccc2c1Br [Example 104-3, (E)-3-(1-bromonaphthalen-2-ylmethyl)-2,7-dimethyl-5-((2-phenylethenyl)sulfonylcarbamoyl)-3H-imidazo[4,5-b]pyridine] |
| 213 to 214 °C | Cc1cc(C(=O)NS(=O)(=O)c2ccc(Cl)s2)nc2c1nc(C)n2Cc1ccc2ccccc2c1Br [Example 104-6, 3-(1-bromonaphthalen-2-ylmethyl)-2,7-dimethyl-5-((5-chlorothiophen-2-yl)sulfonylcarbamoyl)-3H-imidazo[4,5-b]pyridine] |
| 148 to 149 °C | CCCCCS(=O)(=O)NC(=O)c1cc(C)c2nc(C)n(Cc3ccc(Br)cc3Cl)c2n1 [Example 105, 3-(4-bromo-2-chlorobenzyl)-2,7-dimethyl-5-(pentanesulfonylcarbamoyl)-3H-imidazo[4,5-b]pyridine] |
| 225 to 227 °C | Cc1cc(C(=O)NS(=O)(=O)/C=C/c2ccccc2)nc2c1nc(C)n2Cc1ccc(Br)cc1Cl [Example 106-2, (E)-3-(4-bromo-2-chlorobenzyl)-2,7-dimethyl-5-[(2-phenylethenyl)sulfonylcarbamoyl]-3H-imidazo[4,5-b]pyridine] |
| 214 to 215 °C | Cc1cc(C(=O)NS(=O)(=O)c2ccc(Cl)s2)nc2c1nc(C)n2Cc1ccc(Br)cc1Cl [Example 106-3, 3-(4-bromo-2-chlorobenzyl)-5-[(5-chlorothiophen-2-yl)sulfonylcarbamoyl]-2,7-dimethyl-3H-imidazo[4,5-b]pyridine] |
| 242 to 243 °C | Cc1nc2ccc(C(=O)NS(=O)(=O)c3ccccc3)nc2n1Cc1ccc(C#N)cc1Cl [Example 108, 5-(benzenesulfonylcarbamoyl)-3-(2-chloro-4-cyanobenzyl)-2-methyl-3H-imidazo[4,5-b]pyridine] |
| 140 to 142 °C | Cc1nc2ccc(C(=O)NS(=O)(=O)/C=C/c3ccccc3)nc2n1Cc1ccc(C(F)(F)F)cc1Cl [Example 109-1, (E)-3-(2-chloro-4-(trifluoromethyl)benzyl)-2-methyl-5-((2-phenylethenyl)sulfonylcarbamoyl)-3H-imidazo[4,5-b]pyridine] |
| 170 to 171 °C | Cc1nc2ccc(C(=O)NS(=O)(=O)c3ccc(Cl)s3)nc2n1Cc1ccc(C(F)(F)F)cc1Cl [Example 109-3, 3-(2-chloro-4-(trifluoromethyl)-benzyl)-5-((5-chlorothiophen-2-yl)sulfonylcarbamoyl)-2-methyl-3H-imidazo[4,5-b]pyridine] |
| 172 to 173 °C | Cc1nc2ccc(C(=O)NS(=O)(=O)c3ccc(Br)s3)nc2n1Cc1ccc(C(F)(F)F)cc1Cl [Example 109-4, 5-((5-bromothiophen-2-yl)sulfonylcarbamoyl)-3-(2-chloro-4-(trifluoromethyl)benzyl)-2-methyl-3H-imidazo[4,5-b]pyridine] |
| 247 to 248 °C | Cc1cc(C(=O)NS(=O)(=O)c2ccc(Br)s2)nc2c1nc(C)n2Cc1ccc2ccccc2c1Br [Example 112, 3-(1-bromonaphthalen-2-ylmethyl)-5-((5-bromothiophene-2-yl)sulfonylcarbamoyl)-2,7-dimethyl-3H-imidazo[4,5-b]pyridine] |
| 180 to 181 °C | Cc1nc2ccc(C(=O)NS(=O)(=O)c3ccccc3)nc2n1Cc1ccc(CCc2ccccc2)cc1Cl [Example 113, 5-(benzenesulfonylcarbamoyl)-3-(2-chloro-4-(2-phenylethyl)benzyl)-2-methyl-3H-imidazo[4,5-b]pyridine] |

| Compound | melting point |
| --- | --- |
| CCCCOc1ccc(Cn2c(C)nc3ccc(C(=O)NS(=O)(=O)c4ccccc4)nc32)c(Cl)c1 [Example 80, 5-(benzenesulfonylcarbamoyl)-3-(4-(n-butoxy)-2-chlorobenzyl)-2-methyl-3H-imidazo[4,5-b]pyridine] | 181 to 182 °C |
